According to article PMC6920806, “Synthesis of β-D-galactopyranoside-Presenting Glycoclusters, Investigation of Their Interactions with Pseudomonas aeruginosa Lectin A (PA-IL) and Evaluation of Their Anti-Adhesion Potential” (Biomolecules, 2019):
Converted amounts (≈) assume the structure as drawn.

Legend:
[1] = target: T1, lectin PA-IL (Pseudomonas aeruginosa, UniProt Q05097); assay: SPR inhibition of PA-IL binding to immobilized D-galactosides
T1 construct: made in house; host or cells: Escherichia coli BL21(DE3)
T1 sequence (Q05097 2-122): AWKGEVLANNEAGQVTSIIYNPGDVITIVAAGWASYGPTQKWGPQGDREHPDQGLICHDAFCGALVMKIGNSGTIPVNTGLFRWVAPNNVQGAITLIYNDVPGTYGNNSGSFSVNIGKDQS
Procedure: Surface plasmon resonance (SPR) experiments were performed on a BIAcore T200 instrument (GE Healthcare, Chicago, IL, USA) at 25 °C, using HBST running buffer (10 mM HEPES, 150 mM NaCl, 0.5 mM CaCl2, 0.05% Tween 20, pH = 7). A CM5 sensor chip (GE Healthcare, Chicago, IL, USA) covered with a carboxymethylated dextran matrix was used for ligand immobilization. The sensor chip surface was activated with N-ethyl-N-(3-dimethylaminopropyl)carbodiimide/N-hydroxysuccinimide solution and then coated with streptavidin (Sigma-Aldrich, St. Louis, MO, USA) in 10 mM acetate pH = 5.0 according to the manufacturer’s standard protocol to a final response of 7000 RU. Unreacted groups were blocked with 1 M ethanolamine-HCl, pH = 8.5. 0.5 mM biotinylated carbohydrate (1:1 mixture of biotin-α-D-galactoside and biotin-β-D-galactoside for measuring channel and α-L-fucoside for blank channel, all Lectinity, Moskow, Russia) was injected into a particular channel at a flow rate of 5 μL min^−1.
In the experimental setup, SPR inhibition measurements were carried out simultaneously on both measuring and blank channels at a flow rate of 5 µL min^−1. […] The response of the blank channel was subtracted from the response of lectin bound to the galactose-modified surface at equilibrium and plotted against the concentration of inhibitor in order to determine IC50 (concentration of inhibitor resulting in 50% inhibition of binding). As IC50 is not a constant and depends on the experimental set-up, a parameter called potency was used for characterization. The potency of a tested inhibitor is the ratio of IC50 of a chosen standard inhibitor (in this case, D-galactose) and the inhibitor in question. Pure lectin PA-IL was used as a control (0% inhibition).

[2] = target: T1, lectin PA-IL; assay: Isothermal titration microcalorimetry (ITC); format: binding
Procedure: All the experiments were performed on MicroCal iTC200 (Malvern Instruments, Malvern, UK) at 25 °C. The freeze-dried lectin PA-IL was dissolved in 0.1 M Tris/HCl, 500 μM CaCl2, pH = 7.5, and equilibrated at room temperature for 1 h before ITC measurements. Multivalent galactosylated compounds 4, 7, 10 and 13 were diluted in the same buffer and used in 0.25–0.5 mM concentrations. Aliquots of 2 µL of the compounds were added automatically to the 0.078 mM or 0.088 mM PA-IL in the calorimeter cell. Blank experiments (injections of compounds to the buffer) were performed and heat responses were subtracted. Integrated heat effects were analyzed by global fitting of data obtained from three independent titrations for each tested compound by non-linear regression using a single site-binding model (Microcal Origin 7, Malvern Instruments, Malvern, UK). Fitted data yielded the association constant (Ka) and the enthalpy of binding (ΔH). Other thermodynamic parameters, i.e., changes in free energy (ΔG) and entropy (ΔS), were calculated from the following equation: ΔG = ΔH − TΔS = −RT ln Ka, where T is the absolute temperature and R = 8.314 J mol^−1 K^−1. The monosaccharide D-galactose was used as a control; 4 mM D-galactose was added to the 0.147 mM PA-IL in the calorimeter cell. Two titration experiments were performed and the heat responses were processed and evaluated as mentioned above.

[3] = target: T1, lectin PA-IL; assay: Hemagglutination inhibition assay (HIA) with microscope detection; format: biochemical
Procedure: PA-IL was dissolved in the buffer with calcium ions suitable for the activity of the lectin (20 mM Tris/HCl, 150 mM NaCl, 5 mM CaCl2, pH = 7.5) to the concentration 0.25 mg mL^−1. Lectin was mixed with carbohydrate inhibitors serially diluted in the buffer in a 5 µL:5 µL ratio. Therefore, the final (working) concentration of the lectin was 0.125 mg mL^−1. A total of 10 µL of 20% papain-treated, azid-stabilized red blood cells B^+ in the buffer was then added, and the mixture was thoroughly mixed and incubated for 5 min at room temperature. After incubation, the mixture was again mixed, transferred to a microscope slide, and examined. The examination was conducted using the Levenhuk D2L NG Digital Microscope (Levenhuk, Tampa, FL, USA). Images were obtained with a Levenhuk D2L digital camera (Levenhuk, Tampa, FL, USA) using the software ToupView for Windows (Version 3.7, Levenhuk, Tampa, FL, USA). The positive (experiment without inhibitor) and negative control (experiment without lectin) were prepared and processed in the same way using the appropriate volume of dissolving buffer instead of the omitted components. The minimal inhibitory concentration (MIC) of the inhibitor able to inhibit hemagglutination was determined and compared with the standard (D-galactose) and the potency of the inhibitor was calculated (MIC of the standard/MIC of the inhibitor).

[4] = target: T1, lectin PA-IL; assay: Analytical ultracentrifugation (sedimentation velocity), cross-linking of lectin; details: protein:ligand ratios 1:0.1, 1:1, 1:10
Procedure: Analytical ultracentrifugation experiments were performed using ProteomeLab XL-I analytical ultracentrifuge (Beckman Coulter, Indianapolis, IN, USA) equipped with an An-60 Ti rotor. Sedimentation velocity experiments were conducted in titanium double-sector centerpiece cells (Nanolytics Instruments, Potsdam, Germany) loaded with 390 µL of both protein sample and reference solution (PBS buffer, pH = 7.5). PA-IL without the added ligand and PA-IL samples pre-incubated with different concentrations of galactosylated dendrimers 4, 7, 10 and 13 and D-galactose (protein:ligand ratios of 1:0.1, 1:1 and 1:10) were analyzed by the sedimentation velocity experiment. All the measurements were performed in PBS buffer with 22 µM PA-IL. Data were collected using absorbance optics at 25 °C at a rotor speed of 48,000 rpm. Scans were collected at 280 nm (or alternatively at 294 nm to decrease the absorbance signal of the samples containing excess of the UV-absorbing ligands 4 and 10) at 5-min intervals and 0.003 cm spatial resolution in continuous scan mode. The partial specific volume of the protein and the solvent density and viscosity were calculated from the amino acid sequence and buffer composition, respectively, using the software Sednterp (http://bitcwiki.sr.unh.edu). The data were analyzed with the continuous c(s) distribution model implemented in the program Sedfit 15.01b. For the regularization procedure, a confidence level of 0.95 was used. The plots of c(s) distributions were created in GUSSI 1.3.1 [28].

[5] = test system: adhesion of P. aeruginosa (ST 1763) to epithelial bronchial cells (CuFi-1); set-up: method as in PMID 31216664; details: previous study; cited from earlier work

Compound | IC50 [1] [µM] | Potency (IC50 of standard/IC50 of inhibitor) ([1]; SPR, standard D-galactose) | β (Potency/Valency) ([1]; SPR, standard D-galactose) | Kd [2] [µM] | ΔH ([2]; ITC, 25 °C) [kcal/mol] | −T ΔS ([2]; ITC, 25 °C, calculated from ΔG = ΔH − TΔS) [kcal/mol] | ΔG ([2]; ITC, 25 °C, calculated from −RT ln Ka) [kcal/mol] | n (stoichiometry) ([2]; ITC, 25 °C, single site-binding model) | Potency (MIC of standard/MIC of inhibitor) ([3]; HIA, standard D-galactose) | β (Potency/Valency) ([3]; HIA, standard D-galactose) | MIC (minimal inhibitory concentration) ([3]; inhibition of hemagglutination caused by PA-IL (0.125 mg mL−1), papain-treated red blood cells B+) [mM] | cross-linking of PA-IL (formation of the 6.4 S particle) [4] | most effective concentration [5] [µM]
O=C[C@H](O)[C@@H](O)[C@@H](O)[C@H](O)CO [D-galactose, reference compound] | 187 | 1 | 1 | 147 | -9.03 ± 0.698 | 3.8 ± 0.507 | -5.23 ± 0.294 | 0.78 ± 0.05 | 1 | 1 | 6.25 (≈ 1130 µg/mL) | negligible effect | 
C[C@@H]1O[C@@H](OCc2cn(CCOCCOCCOCCn3cc(COCC(COCc4cn(CCOCCOCCOCCn5cc(CO[C@@H]6O[C@@H](C)[C@@H](O)[C@@H](O)[C@@H]6O)nn5)nn4)(COCc4cn(CCOCCOCCOCCn5cc(CO[C@@H]6O[C@@H](C)[C@@H](O)[C@@H](O)[C@@H]6O)nn5)nn4)COCc4cn(CCOCCOCCOCCn5cc(CO[C@@H]6O[C@@H](C)[C@@H](O)[C@@H](O)[C@@H]6O)nn5)nn4)nn3)nn2)[C@@H](O)[C@H](O)[C@@H]1O [Compound 14] |  |  |  |  |  |  |  |  |  |  |  |  | 250
